According to ChEMBL document CHEMBL1687752, “Impact of antifungal prophylaxis on colonization and azole susceptibility of Candida species” (2009):
≈ marks a conversion by molar mass, not a printed value.

tested on: Nakaseomyces glabratus; assay: Antifungal activity against Candida glabrata isolated from HSCT recipients with acute or chronic GVHD receiving posaconazole by broth microdilution method; assay type: functional; conditions: not given

Structure (SMILES)	MIC50 [µg/mL]	MIC90 [µg/mL]
CCC(C)n1ncn(-c2ccc(N3CCN(c4ccc(OCC5COC(Cn6cncn6)(c6ccc(Cl)cc6Cl)O5)cc4)CC3)cc2)c1=O (centres undefined) [ITRACONAZOLE]	2 (≈ 2.83 µM)	8 (≈ 11.3 µM)

tested on: Candida albicans; assay: Antifungal activity against Candida albicans isolated from HSCT recipient 301 with acute or chronic GVHD mouth receiving antifungal drug after 114 days prophylaxis by broth microdilution method; assay type: functional; conditions: not given

Structure (SMILES)	MIC [µg/mL]
CCC(C)n1ncn(-c2ccc(N3CCN(c4ccc(OCC5COC(Cn6cncn6)(c6ccc(Cl)cc6Cl)O5)cc4)CC3)cc2)c1=O (centres undefined) [ITRACONAZOLE]	0.25 (≈ 0.354 µM)

tested on: Saccharomyces cerevisiae; assay: Antifungal activity against Saccharomyces cerevisiae isolated from HSCT recipient 513 with acute or chronic GVHD mouth receiving antifungal drug after 112 days prophylaxis by broth microdilution method; assay type: functional; conditions: not given

Structure (SMILES)	MIC [µg/mL]
CCC(C)n1ncn(-c2ccc(N3CCN(c4ccc(OCC5COC(Cn6cncn6)(c6ccc(Cl)cc6Cl)O5)cc4)CC3)cc2)c1=O (centres undefined) [ITRACONAZOLE]	4 (≈ 5.67 µM)

tested on: Candida albicans; assay: Antifungal activity against Candida albicans isolated from HSCT recipient 042 with acute or chronic GVHD mouth after 112 days prophylaxis by broth microdilution method; assay type: functional; conditions: not given

Structure (SMILES)	MIC [µg/mL]
CCC(C)n1ncn(-c2ccc(N3CCN(c4ccc(OCC5COC(Cn6cncn6)(c6ccc(Cl)cc6Cl)O5)cc4)CC3)cc2)c1=O (centres undefined) [ITRACONAZOLE]	< 0.015

tested on: Candida albicans; assay: Antifungal activity against Candida albicans isolated from HSCT recipient 031 with acute or chronic GVHD mouth receiving antifungal drug after 109 days prophylaxis by broth microdilution method; assay type: functional; conditions: not given

Structure (SMILES)	MIC [µg/mL]
CCC(C)n1ncn(-c2ccc(N3CCN(c4ccc(OCC5COC(Cn6cncn6)(c6ccc(Cl)cc6Cl)O5)cc4)CC3)cc2)c1=O (centres undefined) [ITRACONAZOLE]	0.06 (≈ 0.085 µM)

tested on: Candida albicans; assay: Antifungal activity against Candida albicans isolated from HSCT recipients with acute or chronic GVHD prior to initiation of fluconazole therapy assessed as maximum MIC by broth microdilution method; assay type: functional; conditions: not given

Structure (SMILES)	MIC [µg/mL]
CCC(C)n1ncn(-c2ccc(N3CCN(c4ccc(OCC5COC(Cn6cncn6)(c6ccc(Cl)cc6Cl)O5)cc4)CC3)cc2)c1=O (centres undefined) [ITRACONAZOLE]	0.06

tested on: Nakaseomyces glabratus; assay: Antifungal activity against 23 days cultured Candida glabrata isolated from neutropenic subject with AML or MDS stool receiving antifungal therapy for 25 days after 3 days of prophylaxis by broth microdilution method; assay type: functional; conditions: not given

Structure (SMILES)	MIC [µg/mL]
CCC(C)n1ncn(-c2ccc(N3CCN(c4ccc(OCC5COC(Cn6cncn6)(c6ccc(Cl)cc6Cl)O5)cc4)CC3)cc2)c1=O (centres undefined) [ITRACONAZOLE]	0.125 (≈ 0.177 µM)

tested on: Candida albicans; assay: Antifungal activity against Candida albicans isolated from neutropenic subjects with AML or MDS prior to initiation of posaconazole therapy by broth microdilution method; assay type: functional; conditions: not given

Structure (SMILES)	MIC50 [µg/mL]	MIC90 [µg/mL]
CCC(C)n1ncn(-c2ccc(N3CCN(c4ccc(OCC5COC(Cn6cncn6)(c6ccc(Cl)cc6Cl)O5)cc4)CC3)cc2)c1=O (centres undefined) [ITRACONAZOLE]	0.015 (≈ 0.0213 µM)	0.03 (≈ 0.0425 µM)

tested on: Pichia kudriavzevii; assay: Antifungal activity against Candida krusei isolated from HSCT recipients with acute or chronic GVHD receiving fluconazole by broth microdilution method; assay type: functional; conditions: not given

Structure (SMILES)	MIC50 [µg/mL]	MIC90 [µg/mL]
CCC(C)n1ncn(-c2ccc(N3CCN(c4ccc(OCC5COC(Cn6cncn6)(c6ccc(Cl)cc6Cl)O5)cc4)CC3)cc2)c1=O (centres undefined) [ITRACONAZOLE]	0.5 (≈ 0.709 µM)	16 (≈ 22.7 µM)

tested on: Candida albicans; assay: Antifungal activity against Candida albicans isolated from neutropenic subjects with AML or MDS prior to initiation of fluconazole therapy by broth microdilution method; assay type: functional; conditions: not given

Structure (SMILES)	MIC50 [µg/mL]	MIC90 [µg/mL]
CCC(C)n1ncn(-c2ccc(N3CCN(c4ccc(OCC5COC(Cn6cncn6)(c6ccc(Cl)cc6Cl)O5)cc4)CC3)cc2)c1=O (centres undefined) [ITRACONAZOLE]	0.015 (≈ 0.0213 µM)	0.015 (≈ 0.0213 µM)

tested on: Candida albicans; assay: Antifungal activity against Candida albicans isolated from HSCT recipients with acute or chronic GVHD prior to initiation of posaconazole therapy by broth microdilution method; assay type: functional; conditions: not given

Structure (SMILES)	MIC50 [µg/mL]	MIC90 [µg/mL]
CCC(C)n1ncn(-c2ccc(N3CCN(c4ccc(OCC5COC(Cn6cncn6)(c6ccc(Cl)cc6Cl)O5)cc4)CC3)cc2)c1=O (centres undefined) [ITRACONAZOLE]	0.03 (≈ 0.0425 µM)	0.06 (≈ 0.085 µM)

tested on: Nakaseomyces glabratus; assay: Antifungal activity against Candida glabrata isolated from HSCT recipient 491 with acute or chronic GVHD mouth receiving antifungal drug after 112 days prophylaxis by broth microdilution method; assay type: functional; conditions: not given

Structure (SMILES)	MIC [µg/mL]
CCC(C)n1ncn(-c2ccc(N3CCN(c4ccc(OCC5COC(Cn6cncn6)(c6ccc(Cl)cc6Cl)O5)cc4)CC3)cc2)c1=O (centres undefined) [ITRACONAZOLE]	2 (≈ 2.83 µM)

tested on: Pichia kudriavzevii; assay: Antifungal activity against Candida krusei isolated from HSCT recipients with acute or chronic GVHD receiving fluconazole assessed as maximum MIC by broth microdilution method; assay type: functional; conditions: not given

Structure (SMILES)	MIC [µg/mL]
CCC(C)n1ncn(-c2ccc(N3CCN(c4ccc(OCC5COC(Cn6cncn6)(c6ccc(Cl)cc6Cl)O5)cc4)CC3)cc2)c1=O (centres undefined) [ITRACONAZOLE]	16

tested on: Pichia kudriavzevii; assay: Antifungal activity against 1 day cultured Candida krusei isolated from neutropenic subject with AML or MDS pharynx receiving antifungal therapy for 19 days after 6 days of prophylaxis by broth microdilution method; assay type: functional; conditions: not given

Structure (SMILES)	MIC [µg/mL]
CCC(C)n1ncn(-c2ccc(N3CCN(c4ccc(OCC5COC(Cn6cncn6)(c6ccc(Cl)cc6Cl)O5)cc4)CC3)cc2)c1=O (centres undefined) [ITRACONAZOLE]	0.125 (≈ 0.177 µM)

tested on: Nakaseomyces glabratus; assay: Antifungal activity against Candida glabrata isolated from HSCT recipients with acute or chronic GVHD prior to initiation of posaconazole therapy by broth microdilution method; assay type: functional; conditions: not given

Structure (SMILES)	MIC50 [µg/mL]	MIC90 [µg/mL]
CCC(C)n1ncn(-c2ccc(N3CCN(c4ccc(OCC5COC(Cn6cncn6)(c6ccc(Cl)cc6Cl)O5)cc4)CC3)cc2)c1=O (centres undefined) [ITRACONAZOLE]	1 (≈ 1.42 µM)	8 (≈ 11.3 µM)

tested on: Candida albicans; assay: Antifungal activity against Candida albicans isolated from HSCT recipient 928 with acute or chronic GVHD mouth receiving antifungal drug after 112 days prophylaxis by broth microdilution method; assay type: functional; conditions: not given

Structure (SMILES)	MIC [µg/mL]
CCC(C)n1ncn(-c2ccc(N3CCN(c4ccc(OCC5COC(Cn6cncn6)(c6ccc(Cl)cc6Cl)O5)cc4)CC3)cc2)c1=O (centres undefined) [ITRACONAZOLE]	> 8

tested on: Nakaseomyces glabratus; assay: Antifungal activity against Candida glabrata isolated from neutropenic subjects with AML or MDS receiving posaconazole assessed as maximum MIC by broth microdilution method; assay type: functional; conditions: not given

Structure (SMILES)	MIC [µg/mL]
CCC(C)n1ncn(-c2ccc(N3CCN(c4ccc(OCC5COC(Cn6cncn6)(c6ccc(Cl)cc6Cl)O5)cc4)CC3)cc2)c1=O (centres undefined) [ITRACONAZOLE]	8

tested on: Nakaseomyces glabratus; assay: Antifungal activity against Candida glabrata isolated from neutropenic subject 1491 with AML or MDS pharynx receiving antifungal drug after 23 days prophylaxis by broth microdilution method; assay type: functional; conditions: 552 h

Structure (SMILES)	MIC [µg/mL]
CCC(C)n1ncn(-c2ccc(N3CCN(c4ccc(OCC5COC(Cn6cncn6)(c6ccc(Cl)cc6Cl)O5)cc4)CC3)cc2)c1=O (centres undefined) [ITRACONAZOLE]	8 (≈ 11.3 µM)
